Experimental data published in patent publication US20240132489A1, “AROMATIC HETEROCYCLIC COMPOUND, PHARMACEUTICAL COMPOSITION, AND USE THEREOF” (GT APEIRON THERAPEUTICS LIMITED, priority 2020, published 2024).
Where a name gives a salt, the structure may show the parent alone.

Legend:
CDK9/CyclinT1 = CDK9/CyclinT1 (Homo sapiens (Human), UniProt P50750); assay: In vitro enzymatic inhibitory activity test, CDK9; assay type: biochemical; settings: Caliper mobility shift, 180 min at 27° C.
Description: (§1) CDK7/CyclinH was diluted in a test buffer solution (20 mM MES PH6.75, 0.01% Tween20, 50 ug/mL BSA, 6 mM MgCl2) to obtain a corresponding enzyme solution with a 2.4× concentration. CDK2/CyclinE1 was diluted in a test buffer solution (20 mM MES PH6.75, 0.01% Tween20, 50 ug/mL BSA, 6 mM MgCl2) to obtain a corresponding enzyme solution with a 2.4× concentration. CDK9/CyclinT1 was diluted in a test buffer solution (20 mM MES PH6.75, 0.01% Tween20, 50 ug/mL BSA, 10 mM MgCl2) to obtain a corresponding enzyme solution with a 2.4× concentration. CDK12/CyclinK was diluted in a test buffer solution (80 mM MES PH6.5, 0.01% Tween20, 50 ug/mL BSA, 10 mM MgCl2) to obtain a corresponding enzyme solution with a 2.4× concentration. The compounds were dissolved in dimethyl sulfoxide (DMSO) at a concentration of 10 mM. […] 2 ul of a test compound solution was mixed with 5 ul of enzyme solution. After incubating for 10 min, 5 ul of the mixed solution of the polypeptide substrate and ATP was added. After incubating at 27° C. for 180 min, 4 uL of EDTA with a 120 mM concentration was added to each sample to stop the reaction. […] A CDK9/cyclin TI complex (8 nM) and a “5-FAM-CDK9tide” peptide substrate (2 μM, synthetic fluorophore labeled peptide having the following sequence: 5-FAM-GSRTPMY-NH2, where 5-FAM was as defined above, and NH2 represented C-terminal amide) were used for testing the CDK9 inhibition. […] A CDK2/cyclin E1 complex (0.5 nM) and the “5-FAM-CDK7tide” (2 μM) as defined above were used for testing the CDK2 inhibition.
(§2) Electrophoretic separation was performed on Caliper EZ Reader II by means of a fluorogenic substrate and a phosphorylated product to analyze the reaction mixture. Data were calculated by using GraphPad Prism version 6.0. IC50 values were adjusted by means of a nonlinear regression model using a dose-response curve.

[1] = biological target: CDK7/cyclin H/MAT1 complex (Homo sapiens (Human), UniProt P50613); assay: In vitro enzymatic inhibitory activity test, CDK7; assay type: biochemical; settings: Caliper mobility shift, 180 min at 27° C.
Description: as §1, §2

[2] = biological target: CDK12(aa686-1082)/cyclin K complex (Homo sapiens (Human), UniProt Q9NYV4); assay: In vitro enzymatic inhibitory activity test, CDK12; assay type: biochemical; settings: Caliper mobility shift, 180 min at 27° C.
Description: as §1, §2

A2780 cells = assay: Cell bioactivity detection (CyQuant), A2780; assay type: cell-based, human; settings: ovarian carcinoma cells A2780, 72 hours
Description: (§3) Trypsinization was performed on A2780 and HCC70 cells. Cell suspensions were respectively transferred to 15 mL of centrifuge tubes and centrifuged at 800 rpm for 5 min. The supernatant was discarded. Resuspension in a fresh culture medium (RPMI 1640+10% FBS) was performed. After counting, the cells were inoculated at 2000/well in a 384-well plate (50 φL of 1640+10% FBS culture medium was added to the 2nd line and the 23rd line of the 384-well plate, and 50 μL of DPBS was added to surrounding wells). Incubation in an incubator (37° C., 5% CO2) was performed overnight.
(§4) The compound was added to the well plate the next day. The compound had the highest concentration of 10 μM and was diluted at the ratio of 1:4 to form 9 concentrations. The positive compound Paclitaxel had the highest concentration of 1 μM and was diluted at the ratio of 1:3 to form 9 concentrations. The DMSO content of each well was unified to 0.2%. A cell plate was centrifuged at 800 rpm for 30 seconds. Incubation for 72 hours in an incubator (37° C., 5% CO2) was performed. On the fourth day, a Cyquant reagent (3×) was prepared according to kit instructions. Each 384-well plate was prepared in the following proportions: DPBS: 11.568 mL, CyQuant® Direct nucleic acid stain: 72 μL, CyQuant® Direct background suppressor: 360 ILL. The plates were uniformly mixed and placed for standby application at room temperature. The cell plate was taken out and placed at room temperature to be balanced for 30 min. 25 μL of Cyquant reagent (3×) was dispensed to the cells in each well of the 384-well plates by using a Multi-drop dispenser. Incubation at 37° C. for 60 or more minutes was performed. The plates were read by Acumen (Acumen was configured to have a 488 nm excitation wavelength). IC50 results were analyzed by XLFIT5 of the IDBS company.

HCC70 cells = assay: Cell bioactivity detection (CyQuant), HCC70; assay type: cell-based; settings: human breast cancer cells HCC70, 72 hours
Description: as §3, §4

CDK2/cyclin E1 complex = CDK2/cyclin E1 complex (Homo sapiens (Human), UniProt P24941); assay: In vitro enzymatic inhibitory activity test, CDK2; assay type: biochemical; settings: Caliper mobility shift, 180 min at 27° C.
Description: CDK7/CyclinH was diluted in a test buffer solution (20 mM MES PH6.75, 0.01% Tween20, 50 ug/mL BSA, 6 mM MgCl2) to obtain a corresponding enzyme solution with a 2.4× concentration. CDK2/CyclinE1 was diluted in a test buffer solution (20 mM MES PH6.75, 0.01% Tween20, 50 ug/mL BSA, 6 mM MgCl2) to obtain a corresponding enzyme solution with a 2.4× concentration. CDK9/CyclinT1 was diluted in a test buffer solution (20 mM MES PH6.75, 0.01% Tween20, 50 ug/mL BSA, 10 mM MgCl2) to obtain a corresponding enzyme solution with a 2.4× concentration. CDK12/CyclinK was diluted in a test buffer solution (80 mM MES PH6.5, 0.01% Tween20, 50 ug/mL BSA, 10 mM MgCl2) to obtain a corresponding enzyme solution with a 2.4× concentration. […] 2 ul of a test compound solution was mixed with 5 ul of enzyme solution. After incubating for 10 min, 5 ul of the mixed solution of the polypeptide substrate and ATP was added. After incubating at 27° C. for 180 min, 4 uL of EDTA with a 120 mM concentration was added to each sample to stop the reaction. […] A CDK9/cyclin TI complex (8 nM) and a “5-FAM-CDK9tide” peptide substrate (2 μM, synthetic fluorophore labeled peptide having the following sequence: 5-FAM-GSRTPMY-NH2, where 5-FAM was as defined above, and NH2 represented C-terminal amide) were used for testing the CDK9 inhibition. […] A CDK2/cyclin E1 complex (0.5 nM) and the “5-FAM-CDK7tide” (2 μM) as defined above were used for testing the CDK2 inhibition.
as §2

Sequence of CDK9/CyclinT1 (P50750 whole entry, species assumed): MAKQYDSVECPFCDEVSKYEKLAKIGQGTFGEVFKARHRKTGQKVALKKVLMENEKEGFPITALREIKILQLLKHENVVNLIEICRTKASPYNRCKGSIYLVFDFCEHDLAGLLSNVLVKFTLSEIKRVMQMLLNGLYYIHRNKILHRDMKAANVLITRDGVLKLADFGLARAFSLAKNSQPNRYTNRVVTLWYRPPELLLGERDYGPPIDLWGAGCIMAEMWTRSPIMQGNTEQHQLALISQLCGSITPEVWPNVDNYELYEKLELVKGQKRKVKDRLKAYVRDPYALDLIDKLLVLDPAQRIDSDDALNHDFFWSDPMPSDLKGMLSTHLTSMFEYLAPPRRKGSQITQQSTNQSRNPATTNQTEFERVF
Sequence of CDK9/CyclinT1 (O60563 whole entry partner, species assumed): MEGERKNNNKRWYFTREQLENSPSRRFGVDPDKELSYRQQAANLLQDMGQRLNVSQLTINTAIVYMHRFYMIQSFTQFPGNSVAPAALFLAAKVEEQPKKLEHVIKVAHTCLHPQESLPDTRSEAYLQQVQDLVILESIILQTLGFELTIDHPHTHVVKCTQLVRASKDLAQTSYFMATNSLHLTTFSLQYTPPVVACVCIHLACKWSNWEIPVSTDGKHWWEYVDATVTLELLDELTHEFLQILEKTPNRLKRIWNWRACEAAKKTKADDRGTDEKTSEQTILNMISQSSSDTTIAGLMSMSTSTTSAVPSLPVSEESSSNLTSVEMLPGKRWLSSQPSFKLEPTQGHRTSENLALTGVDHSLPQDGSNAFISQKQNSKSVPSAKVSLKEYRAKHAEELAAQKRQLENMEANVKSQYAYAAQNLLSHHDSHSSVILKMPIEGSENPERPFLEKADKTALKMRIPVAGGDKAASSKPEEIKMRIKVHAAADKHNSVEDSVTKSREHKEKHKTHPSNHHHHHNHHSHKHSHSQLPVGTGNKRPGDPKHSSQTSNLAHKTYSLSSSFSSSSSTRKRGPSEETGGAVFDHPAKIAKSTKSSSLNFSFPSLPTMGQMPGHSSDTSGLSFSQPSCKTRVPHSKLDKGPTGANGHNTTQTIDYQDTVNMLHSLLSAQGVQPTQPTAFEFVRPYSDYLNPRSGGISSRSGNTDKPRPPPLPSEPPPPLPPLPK
Sequence of CDK12(aa686-1082)/cyclin K complex (Q9NYV4 686-1082, species assumed): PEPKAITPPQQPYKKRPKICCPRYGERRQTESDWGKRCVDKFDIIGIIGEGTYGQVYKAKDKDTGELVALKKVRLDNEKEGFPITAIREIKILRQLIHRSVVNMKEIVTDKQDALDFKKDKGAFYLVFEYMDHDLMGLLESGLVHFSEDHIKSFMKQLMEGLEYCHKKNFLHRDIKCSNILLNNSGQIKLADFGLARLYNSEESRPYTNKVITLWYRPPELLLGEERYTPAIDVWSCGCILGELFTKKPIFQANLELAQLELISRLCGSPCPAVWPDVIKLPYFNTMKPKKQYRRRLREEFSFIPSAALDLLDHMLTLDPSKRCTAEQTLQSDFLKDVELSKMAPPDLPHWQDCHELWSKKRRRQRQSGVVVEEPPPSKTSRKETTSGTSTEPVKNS
Sequence of CDK12(aa686-1082)/cyclin K complex (O75909 whole entry partner, species assumed, the tested form may be a part): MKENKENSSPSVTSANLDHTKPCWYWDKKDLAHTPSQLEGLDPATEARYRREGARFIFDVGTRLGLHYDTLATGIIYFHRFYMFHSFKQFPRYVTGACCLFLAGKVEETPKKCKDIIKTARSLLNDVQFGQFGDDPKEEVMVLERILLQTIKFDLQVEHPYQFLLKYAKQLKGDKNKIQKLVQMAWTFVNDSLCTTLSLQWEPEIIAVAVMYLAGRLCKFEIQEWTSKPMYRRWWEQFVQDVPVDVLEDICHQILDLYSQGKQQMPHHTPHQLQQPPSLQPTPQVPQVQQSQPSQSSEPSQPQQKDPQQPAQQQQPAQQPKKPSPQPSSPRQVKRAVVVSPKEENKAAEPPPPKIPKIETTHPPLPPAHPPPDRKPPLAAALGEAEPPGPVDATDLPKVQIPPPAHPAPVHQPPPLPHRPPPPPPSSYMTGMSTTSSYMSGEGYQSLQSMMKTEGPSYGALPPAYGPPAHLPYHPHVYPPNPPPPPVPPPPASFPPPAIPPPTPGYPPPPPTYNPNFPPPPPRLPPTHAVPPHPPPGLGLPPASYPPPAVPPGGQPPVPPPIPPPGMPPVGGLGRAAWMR
Sequence of CDK7/cyclin H/MAT1 complex (P50613 whole entry, species assumed): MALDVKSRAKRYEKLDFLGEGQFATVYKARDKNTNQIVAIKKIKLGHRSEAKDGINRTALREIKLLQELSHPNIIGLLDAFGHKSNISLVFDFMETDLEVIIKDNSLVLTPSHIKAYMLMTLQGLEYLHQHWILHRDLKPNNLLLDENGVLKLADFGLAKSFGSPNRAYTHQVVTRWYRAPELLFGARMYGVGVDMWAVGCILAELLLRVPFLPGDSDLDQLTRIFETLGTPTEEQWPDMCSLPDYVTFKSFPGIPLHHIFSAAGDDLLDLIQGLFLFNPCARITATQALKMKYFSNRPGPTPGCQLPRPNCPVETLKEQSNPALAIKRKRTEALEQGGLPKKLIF
Sequence of CDK7/cyclin H/MAT1 complex (P51946 whole entry partner, species assumed): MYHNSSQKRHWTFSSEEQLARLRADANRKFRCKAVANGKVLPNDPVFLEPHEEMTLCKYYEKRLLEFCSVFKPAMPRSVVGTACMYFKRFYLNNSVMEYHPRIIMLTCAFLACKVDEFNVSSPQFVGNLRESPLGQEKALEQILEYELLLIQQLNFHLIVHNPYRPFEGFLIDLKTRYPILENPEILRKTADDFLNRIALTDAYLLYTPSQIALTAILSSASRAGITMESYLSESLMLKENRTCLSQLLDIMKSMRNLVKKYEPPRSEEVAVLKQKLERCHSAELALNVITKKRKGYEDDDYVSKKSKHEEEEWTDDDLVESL
Sequence of CDK7/cyclin H/MAT1 complex (P51948 whole entry partner, species assumed): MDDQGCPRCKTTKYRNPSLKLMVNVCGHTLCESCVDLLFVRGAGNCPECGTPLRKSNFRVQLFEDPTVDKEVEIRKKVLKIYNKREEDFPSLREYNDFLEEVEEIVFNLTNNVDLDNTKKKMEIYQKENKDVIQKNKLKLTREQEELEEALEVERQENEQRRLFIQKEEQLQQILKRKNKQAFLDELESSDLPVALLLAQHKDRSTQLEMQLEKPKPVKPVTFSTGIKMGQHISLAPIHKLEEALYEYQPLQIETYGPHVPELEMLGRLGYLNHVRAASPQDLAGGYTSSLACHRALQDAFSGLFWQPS

Structure (SMILES)	IC50 (CDK9/CyclinT1) [nM]	IC50 [1] [nM]	IC50 [2] [nM]	IC50 (A2780 cells; Homo sapiens, A2780, 72 h) [nM]	IC50 (HCC70 cells; Homo sapiens, HCC70, 72 h) [nM]	IC50 (CDK2/cyclin E1 complex) [nM]	IC50 (A2780 cells) [nM]	IC50 (HCC70 cells) [nM]
FC(F)(F)c1cnc(N[C@H]2CCCNC2)nc1-c1c[nH]c2nc(C3CCOC3)ccc12 (single isomer, unassigned) [Compound 107]	1440	6.4	567	6.27	6.77	1510		
FC(F)(F)c1cnc(N[C@H]2CCCNC2)nc1-c1c[nH]c2nc(C3CCOC3)ccc12 (single isomer, unassigned) [Compound 108]	1410	4.36	512			947	3.9	3.8
FC(F)(F)c1cnc(N[C@H]2CCCNC2)nc1-c1c[nH]c2nc(N3CCOCC3)ccc12 [Compound 1, (S)-4-(6-morpholinyl-1H-pyrrolo[2,3-b]pyridin-3-yl)-N-(piperidin-3-yl)-5-(trifluoromethyl)pyrimidine-2-amine]	1180	13.4	1460	14	14	3020		
FC(F)(F)c1cnc(N[C@H]2CCCNC2)nc1-c1c[nH]c2nc(N3C[C@H]4C[C@@H]3CO4)ccc12 [Compound 2, 4-(6-((1R,4R)-2-oxa-5-azabicyclo[2.2.1]heptan-5-yl)-1H-pyrrolo[2,3-b]pyridin-3-yl)-N—((S)-piperidin-3-yl)-5-(trifluoromethyl)pyrimidine-2-amine]	1040	10.4	1840	16	15	4380		
OC1CCN(c2ccc3c(-c4nc(N[C@H]5CCCNC5)ncc4C(F)(F)F)c[nH]c3n2)CC1 [Compound 3, (S)-1-(3-(2-(piperidin-3-ylamino)-5-(trifluoromethyl)pyrimidin-4-yl)-1H-pyrrolo[2,3-b]pyridin-6-yl)piperidin-4-ol]	722	17.4	679	12	7.9	2680		
OCC1CCN(c2ccc3c(-c4nc(N[C@H]5CCCNC5)ncc4C(F)(F)F)c[nH]c3n2)CC1 [Compound 4]	682	17.4	733	8	6.1	1480		
FC(F)(F)c1cnc(N[C@H]2CCCNC2)nc1-c1c[nH]c2nc(N3CC4COCC4C3)ccc12 (stereo partly drawn) [Compound 5, N—((S)-piperidin-3-yl)-4-(6-(tetrahydro-1H-furan[3,4-c]pyrrol-5(3H)-yl)-1H-pyrrolo[2,3-b]pyridin-3-yl)-5-(trifluoromethyl)pyrimidine-2-amine]	907	12.1	1020	17	19	2250		
CC1(O)CCN(c2ccc3c(-c4nc(N[C@H]5CCCNC5)ncc4C(F)(F)F)c[nH]c3n2)C1 (stereo partly drawn) [Compound 6, 3-methyl-1-(3-(2-(((S)-piperidin-3-yl)amino)-5-(trifluoromethyl)pyrimidin-4-yl)-1H-pyrrolo[2,3-b]pyridin-6-yl)pyrrolidin-3-ol]	1040	10.4	1840	22	6.7	4380		
FC(F)(F)c1cnc(N[C@H]2CCCNC2)nc1-c1c[nH]c2nc(N3CCCC4(CCOC4)C3)ccc12 (stereo partly drawn) [Compound 7, 4-(6-(2-oxa-7-azaspiro[4.5]decan-7-yl)-1H-pyrrolo[2,3-b]pyridin-3-yl)-N—((S)-piperidin-3-yl)-5-(trifluoromethyl)pyrimidine-2-amine]	3250	24.3	2060	21.9	28	4500		
FC(F)(F)c1cnc(N[C@H]2CCCNC2)nc1-c1c[nH]c2nc(N3CCC4(COC4)C3)ccc12 [Compound 8, (S)-4-(6-(2-oxa-6-azaspiro[3.4]octan-6-yl)-1H-pyrrolo[2,3-b]pyridin-3-yl)-N-(piperidin-3-yl)-5-(trifluoromethyl)pyrimidine-2-amine]	15900	40.3	9320	19.1	16	17500		
FC(F)(F)c1cnc(N[C@H]2CCCNC2)nc1-c1c[nH]c2nc(N3CCC4(CCOC4)CC3)ccc12 [Compound 9, (S)-4-(6-(2-oxa-8-azaspiro[4.5]decan-8-yl)-1H-pyrrolo[2,3-b]pyridin-3-yl)-N-(piperidin-3-yl)-5-(trifluoromethyl)pyrimidine-2-amine]	4530	28.7	1270	36.3	44	7290		
FC(F)(F)c1cnc(N[C@@H]2[C@@H]3CC[C@H]2NC3)nc1-c1c[nH]c2nc(N3CCOCC3)ccc12 [Compound 43, (1R,4R,7R)—N-(4-(6-morpholinyl-1H-pyrrol[2,3-b]pyridin-3-yl)-5-(trifluoromethyl)pyrimidin-2-yl)-2-azabicyclo[2.2.1]heptan-7-amine formate]	> 10000	82.9	> 10000		6070	> 10000		
C[C@H]1CC[C@H](Nc2ncc(C(F)(F)F)c(-c3c[nH]c4nc(N5CCOC[C@@H]5C)ccc34)n2)CN1 [Compound 69, 4-(6-((S)-3-methylmorpholine)-1H-pyrrol[2,3-b]pyridin-3-yl)-N-((3S,6S)-6-methylpiperidin-3-yl)-5-(trifluoromethyl)pyrimidine-2-amine]	> 50000	28.4	49100			47100		642
FC(F)(F)c1cnc(N[C@@H]2CCCNC2)nc1-c1c[nH]c2nc(C3CCCCO3)ccc12 (stereo partly drawn) [Compound 112]		5.82						
FC(F)(F)c1cnc(N[C@H]2CCCNC2)nc1-c1c[nH]c2nc(C3CCCCO3)ccc12 (stereo partly drawn) [Compound 113]		4.76						
